Test results from patent publication US5212182A, “Substituted quinolinyl- and naphthalenylbenzamides or benzylamines and related compounds useful as analgesics” (American Home Products Corpooration, priority 1990, dated 1993).

Experiments:
[1] = target: T1, BK2 receptor sites in guinea pig ileum (Cavia porcellus, UniProt O70526); test: Bradykinin Receptor Binding Assay (3H-BK Binding, G. P. Ileum); set-up: species or system guinea pig (Hartley strain); conditions: 80 pM 3H-BK
T1 construct: The distal portion of the ileum is removed and placed in ice cold homogenization buffer; from tissue; host or cells: distal ileum of adult male Hartley guinea pigs (animals from Charles River), washed membrane homogenate
T1 sequence (O70526 1-372): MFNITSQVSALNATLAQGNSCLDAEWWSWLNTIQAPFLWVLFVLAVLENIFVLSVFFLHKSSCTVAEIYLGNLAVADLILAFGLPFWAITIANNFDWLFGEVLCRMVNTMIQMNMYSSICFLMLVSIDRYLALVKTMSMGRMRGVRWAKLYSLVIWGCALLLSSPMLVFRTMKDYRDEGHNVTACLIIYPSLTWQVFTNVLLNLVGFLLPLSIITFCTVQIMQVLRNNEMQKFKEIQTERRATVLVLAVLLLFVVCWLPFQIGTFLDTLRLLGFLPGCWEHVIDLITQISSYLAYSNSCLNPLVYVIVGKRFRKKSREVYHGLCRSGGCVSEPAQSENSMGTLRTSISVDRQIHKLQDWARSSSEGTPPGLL
Procedure: Protocol for Bradykinin Receptor Binding Assay
The purpose of this assay is to identify compounds which compete specifically with tritiated bradykinin (^3 H--BK) for BK2 receptor sites in guinea pig ileum.
The guinea pig (adult male Hartley strain, 350-500 g, Charles River) is euthanized by stunning followed by decapitation. The distal portion of the ileum is removed and placed in ice cold homogenization buffer (25 mM N-[tris(hydroxymethyl)methyl]-2-aminoethanesulfonic acid (TES), 1 mM 1,10-phenanthroline, adjusted to pH 6.8 with NH4 OH). The contents of the ileal lumen are rinsed out with cold homogenization buffer. The tissue is cut into small pieces and homogenized in 20 volumes of homogenization buffer.
The homogenate is filtered through a surgical gauze sponge and centrifuged at 50,000×g for 20 minutes at 4° C. The supernatant fluid is discarded and the homogenization and centrifugation procedure is repeated. After discarding the supernatant fluid, the final pellet is resuspended in 40 volumes of assay buffer (25 mM TES, pH=6.8, 1 mM 1,10-phenanthroline, 1 mM (2RS, 3RS)-1,4-dimercapto-2,3-butanediol (Cleland's reagent), 2 μM captopril, 140 μg/mL bacitracin and 0.1% bovine serum albumin (BSA)). The homogenate is filtered once more through a surgical gauze sponge and kept on ice until use.
The assay is performed using only polypropylene pipet tips and polypropylene test tubes. Each tube receives 100 μL of 800 pM ^3 H--BK, 100 μL of the test compound solution or vehicle (TES assay buffer), and 100 μL of 25 mg/mL tissue homogenate in a total volume of 1 mL. The final concentration of ^3 H--BK is 80 pM. The final tissue concentration is 2.5 mg/mL. Compounds are screened at 100 μM or 10 μM. Nonspecific binding is determined in the presence of 1 μM unlabeled bradykinin. All determinations are made in triplicate. Three 100 μL aliquots of the 800 pM ^3 H--BK working solution are added directly to scintillation vials to determine the total added radioactivity.
The tubes are incubated for 90 minutes at 25° C. while being gently agitated on an orbital shaker. Bound ligand is separated from free ligand, using Whatman GF/B glass fiber filters (pretreated with 0.1% aqueous polyethyleneimine made neutral with HCl). Assay tubes and glass fiber filters are rinsed three times with 3 mL of cold physiological saline.
The filter discs are transferred to 20 mL scintillation vials. Ten mL of aqueous sample LSC cocktail (Aquassure, New England Nuclear) is added to each vial. After capping, the vials are agitated for 5 minutes on an orbital shaker. The samples are counted for ten minutes in a refrigerated liquid scintillation counter.
The following values are obtained:
Bns : Nonspecific binding
Bx : Total binding in the presence of the test compound
C: Control specific binding C=Bt -Bns
D: Specific binding in the presence of the test compound D=Bx -Bns
Percent of Control: D/C×100
Percent Inhibition: (1-D/C)×100
After calculation of Percent of Control for each dilution, the values are analyzed and the IC50 with its 95% confidence limits is determined on a Hewlett Packard 9816 computer using the program "PS-NONLIN" (generalizednon-linear regression with inverse prediction and graphics).
The test results are reported in the TABLE below under the heading 3H--BK Binding, G. P. Ileum.

[2] = tested on: writhing response induced by bradykinin in mice; test: Bradykinin-induced Writhing in Mice; type: in vivo, mice (male CD-1)
Procedure: Protocol for Bradykinin-induced Writhing in Mice
The purpose of this assay is to determine the ability of test drugs to inhibit the writhing response induced by bradykinin in mice. This test is a primary in vivo screen for bradykinin antagonist analgesics.
Groups of 10 mice each (male CD-1 mice (14-19 g) from Charles River, Kingston, NY, fasted overnight prior to experiment, but having free access to water) are used. Each mouse receives an intraperitoneal injection of 1 mg/kg PGE2 (0.1 mL/10 g body weight) followed 20 minutes later by an i.p. injection of bradykinin 0.5 mg/kg. The number of writhes per mouse is determined for 2 minutes after bradykinin injection. For a primary screen, drugs are administered orally at 20 mg/kg 1 hour prior to the bradykinin.
The percent inhibition of writhing obtained is calculated as follows: [formula]
Several logarithmically spaced doses are tested and the ED50 (dose which inhibits the writhing response by 50%) is determined by regression methods with inverse prediction.
The test results are reported in the TABLE below under the heading BK Induced Writhing in Mice.

[3] = tested on: bradykinin-induced hyperalgesia (pain threshold) in rats; test: Bradykinin-induced Hyperalgesia in Rats; type: in vivo, rats (female Sprague Dawley); conditions: 100 mg/kg p.o.
Procedure: Protocol for Bradykinin-induced Hyperalgesia in Rats
The purpose of this assay is to evaluate analgesic activity of bradykinin antagonists in an inflammatory pain model in rats.
Animals (female Sprague Dawley rats (Charles River, Kingston, NY) 80-115 gms) are fasted overnight, with water given ad lib, if the compounds are to be administered orally. Ten rats are used per test group and six per normal group.
Test compounds are suspended in 0.5% Tween 80 in distilled water, and are administered orally 1 hour (or i.p. 5 minutes) prior to the injection of bradykinin.
The animals are randomized prior to drug administration in order to make the study blind. Bradykinin is injected, as the phlogistic agent, into the subplantar region of the right hindpaw of the rats, in a 0.01 mg/0.1 mL saline solution. The pain threshold is measured 1 minute later using a modification of the Randall-Selitto method, [Randall, et al., Archives International Pharmacodynamics, VIII N4, p 409-419 (1957)].
Animals are placed in a horizontal position with a hindpaw hanging down on the apparatus. The teflon point is placed on the foot pad and a steady pressure is applied, using a foot pedal. The endpoint is determined when the rat emits a squeak or forcefully attempts to remove its paw from the apparatus. […]
Drug effects are expressed as a percent change in pain threshold from bradykinin control values. […]

| SMILES | inhibition at 10 µM [1] | other results |
| --- | --- | --- |
| O=C(NC1CCN(Cc2ccccc2)CC1)c1ccccc1OCc1ccnc2ccccc12 [Example 6, N-[1-(Phenylmethyl)-4-piperidinyl]-2-(4-quinolinylmethoxy)benzamide] | 17.3% | – |
| O=C(NC1CCN(Cc2ccccc2)CC1)c1ccc(/C=C/c2ccnc3ccccc23)cc1 [Example 12, (E)-N-[1-(Phenylmethyl)-4-piperidinyl]-4-[2-(4-quinolinyl)ethenyl]benzamide] | 78.7% | BK Induced Writhing in Mice, % inhibition ([2]; 30 mg/kg i.p.): 10.0% |
| O=C(NC1CCN(Cc2ccccc2)CC1)c1ccc(OCc2cccc3ccccc23)cc1 [Example 10, N-[1-(Phenylmethyl)-4-piperidinyl]-4-(1-naphthalenylmethoxy)benzamide] | 8.6% | – |
| O=C(NC1CCN(Cc2ccccc2)CC1)c1ccc(OCc2ccnc3ccccc23)cc1 [Example 1, N-[1-(Phenylmethyl)-4-piperidinyl]-4-(4-quinolinylmethoxy)benzamide] | – | increase of BK induced pain threshold in rats [3]: 44.8%; BK Induced Writhing in Mice, % inhibition ([2]; 30 mg/kg i.p.): 40.0%; BK Induced Writhing in Mice, % inhibition ([2]; 300 mg/kg p.o.): 52.0%; IC50 [1]: 9.1 µM; inhibition at 100 µM [1]: 98.8% |
| CCN(CC)C(=O)c1ccc(CN2CCC(NC(=O)c3ccc(OCc4ccnc5ccccc45)cc3)CC2)cc1 [Example 15, N-[1-[[4-[(Diethylamino)carbonyl]phenyl]methyl]-4-piperidinyl]-4-(4-quinolinylmethoxy)benzamide] | 30.2% | – |
| O=C(NC1CCN(Cc2ccccc2)CC1)c1ccc(OCc2ccc3ccccc3n2)cc1 [Example 2, N-[1-(Phenylmethyl)-4-piperidinyl]-4-(2-quinolinylmethoxy)benzamide] | – | BK Induced Writhing in Mice, % inhibition ([2]; 30 mg/kg i.p.): 40.0%; BK Induced Writhing in Mice, % inhibition ([2]; 100 mg/kg p.o.): 32.0%; BK Induced Writhing in Mice, % inhibition ([2]; 200 mg/kg p.o.): 22.5%; IC50 [1]: 33.6 µM; inhibition at 100 µM [1]: 93.8% |
| CCCC(=O)N(Cc1ccc(OCc2ccnc3ccccc23)cc1)C1CCN(Cc2ccccc2)CC1 [Example 17, N-[1-(Phenylmethyl)-4-piperidinyl]-N-[[4-(4-quinolinylmethoxy)phenyl]methyl]butanamide] | 25.3% | – |
| O=C(NC1CCN(Cc2ccccc2)CC1)c1ccc(NCc2ccnc3ccccc23)cc1 [Example 18, N-[1-(Phenylmethyl)-4-piperidinyl]-4-[(4-quinolinylmethyl)amino]benzamide] | 8.1% | – |
| O=C(NC1CCN(Cc2ccccc2)CC1)c1ccccc1OCc1ccc2ccccc2n1 [Example 8, N-[1-(Phenylmethyl)-4-piperidinyl]-2-(2-quinolinylmethoxy)benzamide] | 8.4% | – |
| O=C(NC1CCN(Cc2ccccc2)CC1)c1ccc(OCc2cc[n+]([O-])c3ccccc23)cc1 [Example 14, N-[1-(Phenylmethyl)-4-piperidinyl]-4-(4-quinolinylmethoxy)benzamide N-Oxide] | 30.2% | – |
| CCCCN1CCC(NC(=O)c2ccc(OCc3ccnc4ccccc34)cc2)CC1 [Example 3, N-(1-Butyl-4-piperidinyl)-4-(4-quinolinylmethoxy)benzamide] | 15.2% | – |
| CCCCN1CCC(NC(=O)c2ccc(OCc3cccc4ccccc34)cc2)CC1 [Example 11, N-(1-Butyl-4-piperidinyl)-4-(1-naphthalenylmethoxy)benzamide] | 11.1% | – |
| CCCCN1CCC(NC(=O)c2ccc(OCc3ccc4ccccc4n3)cc2)CC1 [Example 4, N-(1-Butyl-4-piperidinyl)-4-(2-quinolinylmethoxy)benzamide] | 10.4% | – |
| O=C(NC1CCN(Cc2ccccc2)CC1)c1cccc(OCc2ccnc3ccccc23)c1 [Example 5, N-[1-(Phenylmethyl)-4-piperidinyl]-3-(4-quinolinylmethoxy)benzamide] | 63.8% | BK Induced Writhing in Mice, % inhibition ([2]; 30 mg/kg i.p.): 31.0%; BK Induced Writhing in Mice, % inhibition ([2]; 200 mg/kg p.o.): 22.0%; IC50 [1]: 7.3 µM |
| O=C(NC1CCN(Cc2ccccc2)CC1)c1cccc(OCc2ccc3ccccc3n2)c1 [Example 7, N-[1-(Phenylmethyl)-4-piperidinyl]-3-(2-quinolinylmethoxy)benzamide] | 43.2% | – |
| CCCCN1CCC(NC(=O)c2ccc(NCc3ccnc4ccccc34)cc2)CC1 [Example 19, N-(1-Butyl-4-piperidinyl)-4-[(4-quinolinylmethyl)amino]benzamide] | 32.8% | – |
| c1ccc(CN2CCC(NCc3ccc(OCc4ccnc5ccccc45)cc3)CC2)cc1 [Example 16, 1-(Phenylmethyl)-N-[[4-(4-quinolinylmethoxy)phenyl]methyl]-4-piperidinamine] | 27.4% | – |
| O=C(NC1CCN(Cc2ccccc2)CC1)c1ccc(/C=C\c2ccnc3ccccc23)cc1 [Example 13, (Z)-N-[1-(Phenylmethyl)-4-piperidinyl]-4-[2-(4-quinolinyl)ethenyl]benzamide] | 35.8% | – |
| CCCCN1CCC(NC(=O)c2cccc(OCc3ccnc4ccccc34)c2)CC1 [Example 9, N-(1-Butyl-4-piperidinyl)-3-(4-quinolinylmethoxy)benzamide] | 21.4% | – |
